The subject of the assay is P388. Nature of the assay: Antineoplastic activity against mouse P388 cells. It counts as functional.

In turn, `CC(C)C[C@@H]1NC(=O)[C@@H]2CCCN2C(=O)[C@H](C(C)C)NC(=O)c2csc(n2)CNC(=O)c2csc(n2)[C@H](CCC(N)=O)NC1=O` [DOLASTATIN 3] gave an ED50 of 2.7 ×10⁻⁷ ug/ml.

The record behind these values is ChEMBL document CHEMBL1151370, “Marine animal biosynthetic constituents for cancer chemotherapy” (1981).
